# Tested on: NK cells
# Assay: NK cell IFNγ production by intracellular flow cytometry after two-day in vivo treatment
# Design: species or system mice
# Conditions: two-day 3AC vs vehicle
# Procedure: FIGS. 3B-3E show activation of NK cells and T cells following exposure to the SHIP1 inhibitor 3AC in vivo. NK cells from two-day 3AC- or vehicle-treated mice were stimulated by incubation on uncoated plates, on plates coated with anti-NK1.1, anti-NKp46, or anti-NKG2D antibody, or on uncoated plates but in the presence of PMA and ionomycin. Representative flow plots (FIG. 3B) and box and whisker plots (FIG. 3C) show the frequency of NK cell production of IFNγ determined by intracellular flow cytometry. […] Anti-CD107a (LAMP-1) PE antibody was added for the final 5 hours of incubation. Degranulation of CD8+ T cells was determined by analysis of CD107a expression by flow cytometry. […]
# SHIP1 is recruited directly to the T cell receptor (TcR), as well as to the scaffolding protein Dokl that limits T cell activation by the TcR (Reginald, K., Revisiting the timing of action of the PAG adaptor using quantitative proteomics analysis of primary T cells. J Immunol. (2015); 195: 5472-5481; Waterman, P. M. et al., The inositol 5phosphatase SHIP-1 and adaptors Dok-1 and 2 play central roles in CD4-mediated inhibitory signaling. Immunol Lett. (2012); 143: 122-130; Freeburn, R. W. et al., Evidence that SHIP-1 contributes to phosphatidylinositol 3,4,5-trisphosphate metabolism in T lymphocytes and can regulate novel phosphoinositide 3-kinase effectors. […]
compound,measurement,setting,value
"CC(C)CCC[C@@H](C)[C@H]1CC[C@H]2[C@@H]3CCC4C[C@H](N)CC[C@]4(C)[C@H]3CC[C@]12C (stereo partly drawn) [Compound 3AC, 3-α-aminocholestane]",NK cell IFNγ production,stimulated with PMA and ionomycin,no difference
same,NK cell IFNγ production,"stimulation with anti-NK1.1, anti-NKp46 or anti-NKG2D",significantly increased

# — patent US11952328B2, “Selective ship inhibitors for treating disease” (THE RESEARCH FOUNDATION FOR THE STATE UNIVERSITY OF NEW YORK, priority 2018, dated 2024)
